Experiments:
Rattus norvegicus [1] = assay: Antiinflammatory activity against carrageenan-induced paw edema in po dosed rat after 4 hrs; format: functional
Rattus norvegicus [2] = species: Rattus norvegicus; assay: Effect on lipid peroxidation in rat gastric mucosa assessed as malondialdehyde level per 100 mg of tissue; format: functional, organism-based
Rattus norvegicus [3] = assay: Toxicity assessed as ulcerogenic activity in po dosed rat; format: organism-based; settings: in vivo
Rattus norvegicus [4] = assay: Analgesic activity in po dosed rat; format: functional
Rattus norvegicus [5] = assay: Antiinflammatory activity against carrageenan-induced paw edema in rat at 30 mg/kg, po after 4 hrs; settings: read-out: Inhibition
Rattus norvegicus [6] = assay: Analgesic activity in rat at 30 mg/kg, po; settings: read-out: Inhibition

| SMILES | Inhibition (Rattus norvegicus [1]) [%] | Activity (Rattus norvegicus [2]) [nmol] | UI (Rattus norvegicus [3]) | Inhibition (Rattus norvegicus [4]) [%] | inhibition in vivo at 30 mg/kg (Rattus norvegicus [5]) [%] | inhibition in vivo at 30 mg/kg (Rattus norvegicus [6]) [%] |
| --- | --- | --- | --- | --- | --- | --- |
| COc1ccc2cc(C(C)c3nnc4sc(Nc5ccc(C)cc5C)nn34)ccc2c1 (stereo unspecified) | 76.51 | 6.11 | 0.833 | 33.3 | – | – |
| COc1ccc2cc(C(C)c3nnc4sc(Nc5ccccc5)nn34)ccc2c1 (stereo unspecified) | 43.93 | – | – | – | – | – |
| COc1ccc2cc(C(C)c3nnc4sc(Nc5ccc(F)cc5)nn34)ccc2c1 (stereo unspecified) | 40.14 | – | – | – | – | – |
| COc1ccc2cc(C(C)c3nnc4sc(-c5ccc(N)cc5)nn34)ccc2c1 (stereo unspecified) | 78.02 | 5.85 | 0.833 | 58.1 | – | – |
| CCCCNc1nn2c(C(C)c3ccc4cc(OC)ccc4c3)nnc2s1 (stereo unspecified) | 40.9 | – | – | – | – | – |
| COc1ccc2cc(C(C)c3nnc4sc(COc5ccc(Cl)cc5Cl)nn34)ccc2c1 (stereo unspecified) | 78.02 | 5.38 | 0.667 | 80.3 | – | – |
| COc1ccc2cc(C(C)c3nnc4sc(-c5ccc(Cl)cc5)nn34)ccc2c1 (stereo unspecified) | 80.3 | 5.27 | 0.583 | 26.7 | – | – |
| COc1ccc2cc([C@H](C)C(=O)O)ccc2c1 [NAPROXEN] | – | 9.04 | – | – | 81.8 | 73.5 |
| COc1ccc2cc(C(C)c3nnc4sc(-c5ccccc5)nn34)ccc2c1 (stereo unspecified) | 81.05 | 4.86 | 0.5 | 89.5 | – | – |
| COc1ccc2cc(C(C)c3nnc4sc(-c5ccccc5N)nn34)ccc2c1 (stereo unspecified) | 54.54 | – | – | – | – | – |
| COc1ccc2cc(C(C)c3nnc4sc(-c5ccc(Cl)cc5Cl)nn34)ccc2c1 (stereo unspecified) | 68.93 | 5.63 | 0.75 | 37.2 | – | – |

Source: ChEMBL document CHEMBL1149567, “Synthesis and pharmacological evaluation of condensed heterocyclic 6-substituted-1,2,4-triazolo[3,4-b]-1,3,4-thiadiazole derivatives of naproxen” (Bioorg Med Chem Lett, 2007)
